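These data come from cells grown in 96-well plates and exposed to compound for 48 hours at five concentrations. TGI is the concentration that stops growth completely.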
Assays:
Assay in all cases: NCI-60 cell line screen, 48 h
SK-MEL-28 melanoma = tested on: SK-MEL-28 melanoma
SK-MEL-2 melanoma = tested on: SK-MEL-2 melanoma
MDA-N = tested on: MDA-N
RXF 393 renal = tested on: RXF 393 renal
CCRF-CEM leukemia = tested on: CCRF-CEM leukemia
SF-268 CNS = tested on: SF-268 CNS
SNB-19 CNS = tested on: SNB-19 CNS
HCC-2998 colon = tested on: HCC-2998 colon
MDA-MB-435 = tested on: MDA-MB-435
T-47D breast = tested on: T-47D breast
NCI-H226 lung = tested on: NCI-H226 lung
DU-145 prostate = tested on: DU-145 prostate
UACC-62 melanoma = tested on: UACC-62 melanoma
NCI-H23 lung = tested on: NCI-H23 lung
SK-MEL-5 melanoma = tested on: SK-MEL-5 melanoma
IGROV1 ovarian = tested on: IGROV1 ovarian
OVCAR-3 ovarian = tested on: OVCAR-3 ovarian
SF-539 CNS = tested on: SF-539 CNS
OVCAR-5 ovarian = tested on: OVCAR-5 ovarian
HOP-92 NSCLC = tested on: HOP-92 NSCLC

Row | SMILES | TGI (SK-MEL-28 melanoma) [µM] | TGI (SK-MEL-2 melanoma) [µM] | TGI (MDA-N) [µM] | TGI (RXF 393 renal) [µM] | TGI (CCRF-CEM leukemia) [µM] | TGI (SF-268 CNS) [µM] | TGI (SNB-19 CNS) [µM] | TGI (HCC-2998 colon) [µM] | TGI (MDA-MB-435) [µM] | TGI (T-47D breast) [µM] | TGI (NCI-H226 lung) [µM] | TGI (DU-145 prostate) [µM] | TGI (UACC-62 melanoma) [µM] | TGI (NCI-H23 lung) [µM] | TGI (SK-MEL-5 melanoma) [µM] | TGI (IGROV1 ovarian) [µM] | TGI (OVCAR-3 ovarian) [µM] | TGI (SF-539 CNS) [µM] | TGI (OVCAR-5 ovarian) [µM] | TGI (HOP-92 NSCLC) [µM]
1 | N#CC(c1ccccc1)N(CCOCCOCCN(C(=O)c1cccc2ccccc12)C(C#N)c1ccccc1)C(=O)c1cccc2ccccc12 (configuration not stated) | > 100 | > 100 | > 100 | > 100 | > 100 | > 100 | > 100 | > 100 | > 100 | > 100 | > 100 | > 100 | > 100 | > 100 | > 100 | > 100 | > 100 | > 100 | > 100 | 
2 | COC(=O)C1(C(=O)OC)CC2=C(S(=O)(=O)c3ccccc3)C[C@H](C#N)[C@H]2C1 | > 100 | > 100 | > 100 | > 100 | > 100 | > 100 | > 100 |  | > 100 | > 100 | > 100 | > 100 | > 100 | > 100 | > 100 | > 100 |  | > 100 | > 100 | > 100
3 | CCOC(=O)c1cc2cc(C)cc(C(=O)c3ccc([N+](=O)[O-])cc3)c2[nH]1 | > 100 | > 100 | > 100 | > 100 |  | > 100 | > 100 | > 100 | > 100 | > 100 | > 100 | > 100 | > 100 | > 100 | > 100 | > 100 | > 100 | > 100 | > 100 | > 100
4 | O=C(/C=C/c1ccc2c(c1)OCO2)CC(=O)/C=C/c1ccc2c(c1)OCO2 |  | > 100 | > 100 | > 100 | > 100 |  | > 100 | > 100 | > 100 | > 100 | > 100 |  | > 100 | > 100 | > 100 | 68.2 | > 100 | > 100 | > 100 | 
5 | CC1=C2CN(C(=O)OCC(C)C)CCC2C2=C(C(=O)c3ccccc3C2=O)C1C (configuration not stated) | > 10 |  | > 10 | > 10 | > 10 | > 10 |  | > 10 | > 10 | > 10 |  | > 10 | > 10 | > 10 | > 10 | > 10 |  |  |  | > 10
6 | CCOC(=O)c1cc(Br)c(-c2onc(C)c2Br)n1C | > 100 | > 100 | > 100 | 28.6 | > 100 | > 100 | > 100 | > 100 | > 100 | 57.7 | > 100 | > 100 | > 100 | > 100 | 32.4 | > 100 | > 100 | > 100 | 68.8 | 
7 | CC(=O)CCC[C@H](C)[C@@H](O)[C@@H]1O[C@H]([C@@]2(C)CCC(=O)O2)C[C@H]1C(=O)O | > 100 | > 100 | > 100 | > 100 | > 100 | > 100 | > 100 | > 100 | > 100 | > 100 | > 100 | > 100 | > 100 | > 100 | > 100 | > 100 | > 100 | > 100 | > 100 | 
8 | COc1ccc(C(c2ccc3c(c2)OCO3)N2C(=O)CCC2C(=O)O)cc1 (configuration not stated) | > 100 | > 100 | > 100 |  | > 100 | > 100 | > 100 | > 100 | > 100 | > 100 | > 100 | > 100 | > 100 | > 100 | > 100 | > 100 | > 100 | > 100 | > 100 | > 100
9 | CCOC(=O)c1ccc(Nc2nc3cc(C(F)(F)F)ccc3nc2C(=O)OCC)cc1 | > 100 |  | > 100 | > 100 | > 100 | > 100 | 62.2 | 69.5 | > 100 | > 100 |  | > 100 | > 100 | > 100 | 89.3 | > 100 | > 100 | > 100 | > 100 | > 100
10 | O=[N+]([O-])c1ccc(C(=Nc2ccccc2)SSC(=Nc2ccccc2)c2ccc([N+](=O)[O-])o2)o1 | 7.04 | 6.15 | 12.4 | 4.55 |  | 4.4 | 4.07 | 3.41 | 6.17 | 5.79 | 56.4 | 3.6 | 3.4 | 3.38 | 20.9 | 3.51 | 3.38 | 4.01 | 5.04 | 6.22
11 | Oc1cccc2c1[nH]c1c(C3=C[C@@]4(O)CC/C=C\CCCCN5CC[C@@H]3[C@]3(CC6/C=C\CCCCN6[C@H]34)C5)nccc12 (some centres not stated) | 3.73 | 2.97 | 2 |  | 4.04 | 6.15 | 14.6 | 1.87 | 2.17 | 3.19 | 5.17 | 4.64 | 3.26 | 2.56 | 2.96 | 3.18 | 2.83 | 3.74 | 2.81 | 1.3
12 | C#CCCOC(=O)c1ccccc1OC(C)=O |  | > 100 | > 100 | > 100 | > 100 | > 100 | > 100 |  | > 100 | > 100 | > 100 | > 100 | > 100 | > 100 | > 100 | > 100 | > 100 | > 100 | > 100 | > 100
13 | CCn1c2ccccc2c2cc(NC(=O)c3c(NCCNCCO)nc(=O)[nH]c3C)ccc21 | > 100 |  | > 100 | > 100 | > 100 | > 100 | > 100 | > 100 | > 100 | > 100 | > 100 | > 100 | > 100 | > 100 | > 100 | > 100 | > 100 | > 100 | > 100 | > 100
14 | NC(=O)OCc1c(-c2ccccc2)nn(-c2ccccc2)c1COC(N)=O | > 100 | > 100 | > 100 | > 100 |  | > 100 | > 100 | > 100 | > 100 | > 100 | > 100 | > 100 | > 100 | > 100 | > 100 |  | > 100 | > 100 | > 100 | > 100
15 | CCc1ccccc1NC(=O)C(=O)CC(=O)c1sc(Nc2ccccc2Cl)nc1C | > 100 | 56.1 | 94.4 | 74.2 | 58.9 | > 100 | > 100 | > 100 | 66.4 | > 100 | > 100 | > 100 | > 100 | > 100 | 52.4 | > 100 | 61 | 66.1 | > 100 | 
16 | CCN(CC)C(=S)SS(=O)(=O)c1ccc(NC(C)=O)cc1 | 39.2 | > 100 | > 78.8 | 33 |  | > 70.2 | > 100 | > 100 | 33.4 | > 100 | > 100 | > 75.4 | > 91.3 | 62.3 | 20.9 |  | > 100 |  | 60.5 | 51.3
17 | CN(C)c1nc(=NCc2cccnc2)ss1 | > 10 |  | > 10 | > 10 | > 10 | > 10 |  |  | > 10 | > 10 |  | > 10 | > 10 | > 10 | > 10 | > 10 |  |  |  | > 10
18 | N#CC1(C#N)C(c2ccccc2)C=CC(c2ccc([N+](=O)[O-])cc2)C1(C#N)C#N (configuration not stated) | 35.5 | 31.6 | 17 |  | > 100 | 51.6 | 34.1 | 42.9 | 16.3 | 7.27 | > 57.5 | 27.3 | 24.8 | 27.4 | 22.9 | 27.8 | 23.2 | 8.38 | 31.9 | 9.88
19 | COc1ccc(C(SCC(N)C(=O)O)(c2ccc(OC)cc2)c2ccc(OC)cc2)cc1 (configuration not stated) | 16.8 | 18.4 | 12.7 | 15.6 | > 31.6 | 19.9 | 22.6 | 17.4 | 10.8 | 21.4 | 18.3 |  | 15.7 | 20.6 |  | 20.2 | 17.1 | 17.6 | 20.7 | 31.6
20 | O=Nc1c(NO)ccc2nn(-c3ccccc3)nc12 | 43.3 | > 100 | > 100 |  | > 100 | > 100 | > 100 | 85.5 | 38.3 | > 100 | 6.64 | > 100 | 9.21 |  | 10.8 | 49.4 | > 100 | 18.4 | 37.6 | > 100
21 | c1cc(C[S+]2CCCC2)sc1C[S+]1CCCC1 |  |  | > 100 | > 100 | > 100 | > 100 | > 100 | > 100 | > 100 | > 100 | > 100 | > 100 | > 100 | > 100 | > 100 | > 100 | > 100 | > 100 | > 100 | > 100
22 | OC(CC(O)(C(F)(F)F)C(F)(F)F)C(O)c1ccco1 (configuration not stated) | > 10 | > 10 | > 10 | > 10 | > 10 | > 10 | > 10 | > 10 | > 10 | > 10 | > 10 | > 10 | > 10 | > 10 | > 10 | > 10 | > 10 | > 10 |  | 
23 | C=C(CN)CO[Si](C)(C)C(C)(C)C | > 100 | > 100 | > 100 |  | > 100 | > 100 | > 100 | > 100 | > 100 | > 100 | > 100 | > 100 | > 100 | > 100 | > 100 | > 100 | > 100 | > 100 | > 100 | 
24 | CN(C)Cc1cc(/C=C/C(=O)c2ccc(Cl)c(Cl)c2)cc(CN(C)C)c1O | 26.9 | 31 | 29.8 | 28.4 | 16.9 | 23.7 | 32.5 | 19.3 | 23.3 | 24.1 |  | 27.1 | 27.4 |  | 28.1 | 25.3 | 23.8 | 20.3 | 28.3 | 
25 | COc1ccc(C2=NN(C(=O)c3cccnc3)C(O)(c3cc(F)c(Cl)cc3Cl)C2)cc1OC (configuration not stated) | 54.4 | 32 | 90 | 33.5 | > 100 | 39.8 | > 100 |  | 87.4 | > 100 | 30 | > 100 |  | 71.7 | 25 | 30.5 | 27.6 | 33.5 | > 100 | 50.8

Reference: PubChem BioAssay (NCI)
